Laboratory results from US20220241416A1, “METHODS FOR THE IDENTIFICATION OF SARM1 NADASE ACTIVITY INHIBITORS AND USES THEREOF” (Bar Ilan University, priority 2021, published 2022).

Assays:
zfSARM1 = target: T1, zfSARM1 (Danio rerio, UniProt F1QWA8); experiment: Effect of hSARM1 inhibitors on zfSARM1 NADase activity (ADPR by HPLC); format: biochemical, Zebrafish; settings: 50 μM NAD+; ADPR production by HPLC
T1 sequence (F1QWA8 1-713): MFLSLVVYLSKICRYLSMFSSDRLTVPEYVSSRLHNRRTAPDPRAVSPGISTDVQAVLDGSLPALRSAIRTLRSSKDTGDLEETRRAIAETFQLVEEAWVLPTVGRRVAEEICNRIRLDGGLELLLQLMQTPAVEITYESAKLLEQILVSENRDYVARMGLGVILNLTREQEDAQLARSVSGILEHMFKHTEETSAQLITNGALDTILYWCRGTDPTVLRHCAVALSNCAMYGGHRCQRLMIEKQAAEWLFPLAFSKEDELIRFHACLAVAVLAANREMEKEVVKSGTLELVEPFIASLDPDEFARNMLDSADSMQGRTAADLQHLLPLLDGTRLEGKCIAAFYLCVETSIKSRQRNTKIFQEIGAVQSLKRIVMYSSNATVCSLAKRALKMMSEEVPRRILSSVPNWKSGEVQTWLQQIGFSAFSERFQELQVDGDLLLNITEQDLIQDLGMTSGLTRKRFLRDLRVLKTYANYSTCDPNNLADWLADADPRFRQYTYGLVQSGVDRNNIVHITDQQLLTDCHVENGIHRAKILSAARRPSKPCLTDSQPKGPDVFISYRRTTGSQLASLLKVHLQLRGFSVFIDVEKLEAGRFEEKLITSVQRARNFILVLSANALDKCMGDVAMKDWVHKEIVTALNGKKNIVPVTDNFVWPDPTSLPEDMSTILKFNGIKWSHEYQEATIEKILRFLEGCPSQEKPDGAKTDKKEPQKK

hSARM1 = target: T2, hSARM1 (Homo sapiens, UniProt Q6SZW1); experiment: High-throughput resazurin fluorescence inhibitor screen; format: biochemical; settings: 1 mM NAM; pre-incubation 10 minutes at room temperature
T2 construct: hSARM1w.t; (26ERL . . . GPT724) that was not mutated in E642, was also expressed and isolated; 6xHis (N); TEV cleavage site (N); made in house; host or cells: HEK293F suspension cells
T2 sequence (Q6SZW1 with tags, fused parts or gaps): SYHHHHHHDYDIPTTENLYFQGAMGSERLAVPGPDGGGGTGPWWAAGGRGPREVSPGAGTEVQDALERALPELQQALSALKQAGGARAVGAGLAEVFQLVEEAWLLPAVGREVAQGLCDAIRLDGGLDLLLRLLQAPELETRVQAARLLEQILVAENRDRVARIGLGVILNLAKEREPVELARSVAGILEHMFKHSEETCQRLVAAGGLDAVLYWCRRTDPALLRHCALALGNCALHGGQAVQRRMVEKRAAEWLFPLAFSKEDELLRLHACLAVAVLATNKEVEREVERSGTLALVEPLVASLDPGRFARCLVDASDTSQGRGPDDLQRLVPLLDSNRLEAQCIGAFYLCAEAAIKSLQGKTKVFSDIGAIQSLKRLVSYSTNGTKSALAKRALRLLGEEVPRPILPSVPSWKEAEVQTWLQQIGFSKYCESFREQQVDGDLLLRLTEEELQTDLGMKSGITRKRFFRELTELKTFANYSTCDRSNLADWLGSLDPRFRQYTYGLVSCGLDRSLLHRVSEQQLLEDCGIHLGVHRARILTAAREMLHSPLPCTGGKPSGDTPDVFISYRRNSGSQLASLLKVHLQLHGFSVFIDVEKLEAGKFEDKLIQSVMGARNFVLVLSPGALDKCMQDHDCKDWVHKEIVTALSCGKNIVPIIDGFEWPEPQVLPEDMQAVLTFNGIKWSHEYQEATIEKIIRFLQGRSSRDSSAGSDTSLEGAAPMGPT
Experimental: The high-throughput inhibitor-screening assay was preformed using the MultiDrop 384 microplate dispenser (Thermo Scientific) and 1536-well black/black non-binding Microplates (Greiner Bio-One).
First, 10 nano-liters of each of the 142000 screened compounds, solubilized in DMSO, were plated using Echo® 550 Liquid Handler (Sunny vale, CA, USA). Then. 5 micro liters of purified SARM1 (at 50 Nano-Molar concentration) in 25 mM HEPES pH 7.5, 150 mM NaCl were added to each well for 10 minutes incubation in 25° C. Next, 2.5 Micro Liters of NAD+(in 0.25 Micro-Molar concentration, in 25 mM HEPES pH 7.5, 150 mM NaCl) were added to each well and incubated for 70 min at 37° C. The compounds concentration at this point were […].
Measurement of NAD+ concentrations were made by a modified enzymatic coupled cycling assay. […] Fluorescent signals were measured by PheraStar FS plate reader (BMG Labtech, Ortenberg, Germany) at 540-nm excitation and 590-nm emission wavelengths. […]
To discover new and effective inhibitors for hSARM1, we have applied a modified fluorescence assay for high throughput screening. The adaptations introduced in this assay aim to achieve: stable fluorescent signal over time, good sensitivity for inhibition by screened compounds, high signal-to-noise, good reproducibility, accuracy, and diminishing of false-positive readouts. […]

IC50 (zfSARM1): 227 µM
fluorescence output response (hSARM1): hSARM1 inhibition
Compound: NC(=O)c1cccnc1 [NAM, nicotinamide, reference compound]
